Experimental data from patent US9663545B2, “Organometallic 2-cyano-2-aminobenzoate-propyl derivates and their use as anthelmintics” (UNIVERSITÄT ZÜRICH, priority 2013, dated 2017).

Test: stability in sheep plasma (LC-MS)
Conditions: 37° C., different time intervals, diazepam internal standard, new peak of the hydrolysed product arises
Experimental: Compound 8a and diazepam (internal standard) were incubated at 37° C. for different time intervals and their stability was checked using an LC-MS technique.

2-cyano-2-(4-((trifluoromethyl)thio)benzamido)propyl ferrocenoate [Compound 8a]
stability in sheep plasma (LC-MS peak of the compound): decreasing within 24 hours
